Columns and labels:
[1] = test system: Colorado potato beetle larvae (Leptinotarsa decemlineata); experiment: Foliar insecticidal activity on eggplant, Colorado potato beetle feeding damage; assay type: in vivo; details: foliar spray on eggplant at 0.05 ppm each; 2nd instar larvae; evaluated 3 days later, relative to untreated controls
Experimental: (§1) Each mixture partner has been evaluated separately at the same rates as used in the mixtures. Synergism was determined by comparing the expected biological effect on plant health or on disease control from the mixture based on the individual effects from the separate partners to the biological effect observed with the mixture. Abbott's formula has be used to make this comparison.
The foliage of eggplant plants (Solanum melongena, variety Black Beauty) at the 4th to 5th true-leaf stage was treated with a mixture of commercially available fipronil SC formulation (REGENT® 4 SC, 479 g a.i./L-) at 0.05 ppm with commercially available clothianidin formulation (PONCHO® 600, 600 g a.i./L) at 0.05 ppm. In addition, there was a treatment with each mixture partner at its respective solo rate. Treatment was by spraying the leaves to near run-off. The carrier for all treatments was water. Two leaves on each of three plants were sprayed per treatment. […] Insect feeding damage to the foliage was evaluated 3 days later. Percent reductions in insect feeding damage were calculated based on the untreated controls.
The expected reduction in feeding damage for the mixture was calculated based on the percent reductions observed when each mixture partner was applied solo at the rate it was applied in the mixture using Abbott's formula as follows: […]

[2] = test system: Western corn rootworm larvae (Diabrotica virgifera virgifera); experiment: Seed treatment of field corn seeds, Western corn rootworm larval mortality; assay type: in vivo; details: corn seed treatment at the rate printed in the row (fipronil 0.005, clothianidin 0.05 g a.i./100 kg seed); 2nd instar larvae; mortality 1 day after infestation, adjusted for untreated controls
Experimental: as §1
Field corn seeds (Zea mays) were treated with a mixture of commercially available fipronil SC formulation (REGENT® 4 SC—479 g a.i./L) at rates of 0.005 g ai/100 kg seed with commercially available clothianidin formulation (PONCHO® 600—600 g a.i./L) at 0.05 g ai/100 kg seed. In addition, there was a treatment with each mixture partner at its respective solo rate. The carrier for all treatments was water. The respective formulation(s) and water were mixed in a 20 ml vial. Then 25 seeds were added, and the vial was vortexed. After treatment, seeds were allowed to dry. […] Petri plates were incubated at 26° C., and insect mortality was evaluated 1 day later. Percent mortalities were calculated adjusting for any mortality in the untreated controls.
The expected percent mortality for the mixture was calculated based on the percent mortalities observed when each mixture partner was applied solo at the rate it was applied in the mixture using Abbott's formula as follows: […]

SMILES | Actual Mixture Response [% Reduction in Insect Feeding Injury] [1] [%] | Actual Mixture Response [% Larval Mortality] [2] [%]
CN/C(=N\[N+](=O)[O-])NCc1cnc(Cl)s1 [Clothianidin, clothianidin] | 21 | 14
N#Cc1nn(-c2c(Cl)cc(C(F)(F)F)cc2Cl)c(N)c1[S+]([O-])C(F)(F)F (stereo not shown) [Fipronil, fipronil] | 0 | 0
